Test results published in patent US9498507B2, “Antiviral composition” (Piramal Enterprises Limited, priority 2011, dated 2016).

Experiments:
HSV-1 [1] = assay: Primary antiviral screening, CPE inhibition assay (crystal violet staining method); assay type: cell-based; settings: Human alphaherpesvirus 1
Description: (§1) The assay was done as reported in Indian J. Med. Res., 2004, 120:24-29 incorporated herein by reference for its procedure.
(§2) Vero cells (obtained in step 1 of Example 8) were propagated at a density of 1×10^4 cells/well in 96 well plate and incubated at 37° C. in a CO2 incubator for 24 hours to form a monolayer. Samples 1 to 26 were tested by adding at 50 μg/mL and 100 μg/mL concentration (DMSO stock of 20 mg/mL of the extract was diluted to 50 μg/mL and 100 μg/mL with DMEM containing 2% FBS) in a final culture volume of 200 μL/well. Appropriate controls were included such as Vero cells alone (cell control), Vero cells with virus (virus control) and Vero cells with virus and the standard compound, acyclovir (a commercially available antiviral drug). Acyclovir was tested at the following concentrations (DMSO stock of 20 mg/mL of acyclovir was diluted to 100 μg/mL with DMEM containing 2% FBS): 12.5 μg/mL, 6.25 μg/mL, 3.125 μg/mL, 1.5 μg/mL and 0.78 μg/mL against HSV-1 and 25 μg/mL, 12.5 μg/mL, 6.25 μg/mL and 3.125 μg/mL against HSV-2. The extracts to be assayed were added 1 hour prior to infection to provide maximum sensitivity and give a tentative idea of potential inhibitors of early replicative steps such as adsorption or penetration. After one hour, cells were infected with 100 μL of appropriate viral dose per well [HSV-1 at a multiplicity of infection (MOI) of 10^4 TCID50 or HSV-2 at a MOI of 10^3 TCID50] using viral stock obtained in step 2 of Example 8. The infected cells were incubated with maintenance medium (DMEM with 2% FBS) for another 48 to 50 hours. […] The staining solution was aspirated out and the plates rinsed using distilled water until all excess stain was washed away. The plates were allowed to dry for 24 hours. CPE was evaluated visually, after staining the plaques, and microscopically and graded according to the percentage of CPE inhibition as compared to controls.

HSV-2 [2] = assay: as above; assay type: cell-based; settings: Human alphaherpesvirus 2
Description: as §1, §2

HSV-1 [3] = assay: Effect on replication at different time points post-infection (MTT); assay type: cell-based
Description: (§3) These stages occur at different time points in the virus life cycle spanning from 1 hour—initiation of adsorption to 24 hours—completion of one HSV replication cycle. Adsorption stage of the virus life cycle is the initial attachment of the herpes virus to host cells which involves interaction of gC and gD (conserved glycoproteins) on the virus with cell surface receptors such as heparin sulfate. Attachment stage of the virus life cycle is the stable attachment which allows close association of virus with the cell. The stage of the virus life cycle subsequent to the adsorption and attachment stages is known as the post infection stage. Vero cells were seeded onto 96-well flat-bottomed plates at a density of 2.2×10^4 cells/well in 10% FBS-DMEM growth medium. After 20-24 hours, the confluent monolayers were infected with 100 μL/well of 1:10^4 virus dilution (HSV-1 clinical strain) (TCID50 5.88×10^6/mL) or 1:10^3 dilution of HSV-2 (TCID50 2.43×10^6/mL) and plates incubated for 1 hour at 37° C. and 5% CO2. […] Maintenance medium was added to the wells for virus control (virus dilution+maintenance medium) and cell control (maintenance medium only). The plates were further incubated for 48-50 hours at 37° C. […] The plate was left in the 37° C., 5% CO2 incubator overnight. After incubation, the plate cover was removed and absorbance measured in each well at 570 nm in the microplate plate reader (BIO-TEK, Synergy HT).

HSV-2 [4] = assay: as above; assay type: cell-based
Description: as §3

HSV-1 [5] = assay: Antiviral activity prior to infection (pre-treatment plaque assay); assay type: cell-based; settings: 3.125-400 μg/mL
Description: (§4) In order for herpes viruses to enter a target cell, they must fuse their lipid membrane envelope with the lipid membrane of the cell. This complex viral entry mechanism is mediated by at least three conserved glycoprotein's (gC, gB and gD) and their ability to bind cell surface receptors such as nectins and herpes virus entry mediator (HVEM) (Cell. Mol. Life Sci, 2008, 65, 1653-1668). […] Vero cells were seeded onto 24 well plates at a density of 1.8×10^5 cells/well. […] Following incubation, the plates were washed with 0.85% saline and stained with 0.13% crystal violet.

HSV-2 [6] = assay: as above; assay type: cell-based; settings: 3.125-400 μg/mL
Description: as §4

HSV-1 [7] = assay: Virus penetration assay; assay type: cell-based; settings: compared to sample 23 of Example 4
Description: (§5) Penetration of HSV into host cells may be defined as a step subsequent to initial binding to the host cell surface which triggers fusion of the virion envelope with the plasma membrane. This requires multiple interactions, in a cascade like manner, involving various glycoproteins (gB, gD and gH/gL) and cell surface components (Cell. Mol. Life Sci, 2008, 65, 1653-1668). […] Vero cells were seeded onto 24 well plates at a density of 1.8×10^5 cells/well. […] The cells were incubated at 4° C. for 2 hours to allow viral attachment. […] The plates were then washed with 0.85% saline and stained with 0.13% crystal violet.

HSV-2 [8] = assay: Virus penetration assay; assay type: cell-based; settings: compared to sample 23 of Example 4
Description: as §5

HSV-1 [9] = assay: Virucidal activity assay; assay type: cell-based; settings: 25-400 μg/mL
Source text: (§6) In the virucidal assay, the continuous presence of an antiviral drug may be frequently required for blocking infectivity of viral particle for cultured cells and dilution of the virus-extract complexes may dissociate, releasing infectious virus (Antiviral research, 2010, 86, 196-203). If a sample is unable to reduce virus infectivity at the IC50 or other potent concentrations then the antiviral activity is not related to its virucidal ability. […] HSV-1 virus suspension at a concentration of approximately 10^10 pfu/mL and HSV-2 at 10^9 pfu/ml were prepared. […] These admixtures were then diluted […] (1:100) to yield a final concentration range of 0.25-4 μg/ml corresponding to 25-400 μg/ml.

HSV-2 [10] = assay: Virucidal activity assay; assay type: cell-based; settings: 25-400 μg/mL
Source text: as §6

HSV-1 [11] = assay: Mouse HSV-1 zosteriform spread infection model; assay type: in vivo, Balb/c female mice; settings: acyclovir 225 mg/kg/day topical
Source text: The assay was done as reported in Antimicrobial Agents and Chemotherapy, June 2002, p. 1766-1772, incorporated herein by reference for its procedure.
Balb/c female mice of 6 to 8 weeks which are non-pregnant and nulliparous were used for the study. All the animals were shaved on right mid dorsal area using electric hair clipper and few horizontal scarification was done on shaved area using sterile 26 gauge needle, just before viral challenge.
Prior to viral challenge, the scarified area of each mouse was cleaned with a cotton swab soaked in 70% alcohol followed by clearing the area using cotton swab soaked in sterile DMEM. Mice were then infected onto the scarified area with HSV-1 virus containing 8.27×10^3 pfu/animal. […]
The following formulations, as described in Example 6, were evaluated: • (a) Formulation IA • (b) Formulation IB • (c) Formulation IC
Formulation IA, Formulation IB and Formulation IC were applied topically thrice daily for a 5 day period. 15 mg of Formulation IA correspond to 225 mg/kg dose; 15 mg of Formulation IB correspond to 450 mg/kg dose; 15 mg of Formulation IC correspond to 675 mg/kg dose and 25 mg of Formulation IB correspond to 750 mg/kg dose evaluated in the animals.
The animals were assessed daily for morbidity, mortality and the site of infection for a period of 21 days post infection. […]

HSV-2 [12] = assay: Mouse vaginal model of HSV-2 infection; assay type: in vivo, Balb/c female mice; settings: acyclovir 225 mg/kg/day intravaginal
Description: The assay was done as reported in Antiviral Research, 2006, 69:77-85, incorporated herein by reference for its procedure.
Balb/c female mice of 6 to 8 weeks, non-pregnant and nulliparous were used for the study. Female BALB/c mice were used for vaginal inoculation with HSV-2. Five days prior to intravaginal (IVAG) challenge, mice were injected subcutaneously (sc) with 2 mg of progesterone (Depo-Provera®; Pfizer, Belgium) in the upper back, using a 29-gauge needle. On the day of challenge, mice were inoculated intravaginally with 1.14×10^5 pfu of HSV-2. IVAG administrations of virus were via a micropipette in a total volume of 20 μL DMEM. Animals received Formulation IA, Formulation IB, Formulation IC/acyclovir/placebo intravaginally by topical administration 30 minutes post infection. […]
The following formulations, as described in Example 6, have been evaluated: • (a) Formulation IA • (b) Formulation IB • (c) Formulation IC
Formulation IA, Formulation IB and Formulation IC were applied topically thrice daily for a 5 day period. 15 mg of Formulation IA correspond to 225 mg/kg dose; 15 mg of Formulation IB correspond to 450 mg/kg dose and 15 mg of Formulation IC correspond to 675 mg/kg dose evaluated in the animals.
The animals were assessed daily for extravaginal disease signs and survival for a period of 21 days post infection. […]

**Q.** How did the inhibition at 0.78 µg/mL (HSV-1 [1]; 0.78 μg/mL) turn out when `Nc1nc2c(ncn2COCCO)c(=O)[nH]1` [Acyclovir] was run?
**A.** Its inhibition at 0.78 µg/mL is 11 to 25%.

**Q.** What about the inhibition at 1.5 µg/mL (HSV-1 [1]; 1.5 μg/mL) of the same compound?
**A.** Its inhibition at 1.5 µg/mL is 26 to 50%.

**Q.** What about the inhibition at 3.125 µg/mL (HSV-1 [1]; 3.125 μg/mL) of the same compound?
**A.** The inhibition at 3.125 µg/mL was 51 to 75%.

**Q.** And the inhibition at 6.25 µg/mL (HSV-1 [1]; 6.25 μg/mL)?
**A.** The inhibition at 6.25 µg/mL was 51 to 75%.

**Q.** What about the inhibition at 12.5 µg/mL (HSV-1 [1]; 12.5 μg/mL) of the same compound?
**A.** The inhibition at 12.5 µg/mL was 76 to 100%.

**Q.** What about the inhibition at 3.125 µg/mL (HSV-2 [2]; 3.125 μg/mL) of the same compound?
**A.** The inhibition at 3.125 µg/mL was 11 to 25%.

**Q.** And the inhibition at 6.25 µg/mL (HSV-2 [2]; 6.25 μg/mL)?
**A.** Its inhibition at 6.25 µg/mL is 26 to 50%.

**Q.** And the inhibition at 12.5 µg/mL (HSV-2 [2]; 12.5 μg/mL)?
**A.** Its inhibition at 12.5 µg/mL is 51 to 75%.

**Q.** And the inhibition at 25 µg/mL (HSV-2 [2]; 25 μg/mL)?
**A.** The inhibition at 25 µg/mL was 76 to 100%.

**Q.** What about the antiviral effect (HSV-1 [3]; 3.125-200 μg/mL, 0-7 hours) of the same compound?
**A.** The antiviral effect was “potent antiviral effect”.

**Q.** And the antiviral effect (HSV-1 [3]; 16-24 hours)?
**A.** The antiviral effect was “about 17%”.

**Q.** What about the antiviral effect (HSV-2 [4]; 3.125-200 μg/mL, 0-7 hours) of the same compound?
**A.** The antiviral effect was “potent antiviral effect”.

**Q.** And the antiviral effect (HSV-2 [4]; 16-24 hours p.i.)?
**A.** The antiviral effect was “absent”.

**Q.** What about the “inhibitory effect against HSV-1 prior to infection” value (HSV-1 [5]) of the same compound?
**A.** Its value is 10-40%.

**Q.** And the “inhibitory effect against HSV-2 prior to infection” value (HSV-2 [6])?
**A.** The value was 10-20%.

**Q.** And the “inhibitory activity (penetration)” value (HSV-1 [7])?
**A.** Its value is “weak to moderate inhibitory activity”.

**Q.** And the “inhibitory activity (penetration)” value (HSV-2 [8])?
**A.** The value was “weak to moderate inhibitory activity”.

**Q.** And the “virucidal effect against HSV-1” value (HSV-1 [9])?
**A.** The value was 0-32%.

**Q.** And the “virucidal effect against HSV-2” value (HSV-2 [10])?
**A.** Its value is 11-38%.

**Q.** And the mortality (HSV-1 [11])?
**A.** Its mortality is “None of the mice died”.

**Q.** And the “recovery of all mice from zosteriform lesions” value (HSV-1 [11])?
**A.** Its value is ≤ 7 day, post infection.

**Q.** And the mortality (HSV-2 [12])?
**A.** Its mortality is “None of the mice died”.

**Q.** And the “signs of extravaginal disease” value (HSV-2 [12])?
**A.** Its value is “None of the mice showed signs of extravaginal disease”.
